US10995068B2, “Synthetic sphingolipid-like molecules, drugs, methods of their synthesis and methods of treatment” (The Regents of the University of California, priority 2015, dated 2021)

Assays:
[1] = tested on: mouse prostate cancer epithelial cells (mPCE); assay: LDL receptor, LDL uptake and lipid droplets in mPCE cells; format: cell-based
Description: To determine the sensitivity, SH-BC-893 was evaluated in a validated genetically-engineered mouse model for invasive castration-resistant prostate cancer that lacks p53 and PTEN expression exclusively in the prostate (pDKO) (Wu X, et al. Am J Clin Exp Urol. 2014; 2(2):111-20; Schwarzenböck S, et al. Theranostics. 2012; 2(3):318-330; Chen Z, et al. Nature. 2005; 436(7051):725-730; the disclosures of which are herein incorporated by reference). […] SH-BC-893, however, still produced a phenotype consistent with starvation as the bound NADH fraction increased and cell permeant nutrients protected mPCE cells from death (FIGS. 65A and 65C). Prostate cancer cells depend on exogenous LDL for growth and survival. […]
(§1) Light Microscopy: Brightfield and epifluorescence microscopy were conducted using a Nikon TE2000-S fluorescence microscope; confocal microscopy was performed on a Zeiss LSM780 confocal microscope or Nikon Eclipse Ti spinning disk confocal microscope. […] Co-localization was determined using JACoP plugin in ImageJ software. Macropinocytosis was measured after 16 h incubation in serum-free DMEM. p53−/−; LSL-K-RasG12D MEFs before (LSL) or after (KRasG12D) introduction of Cre were serum starved for 16 h and then treated with macropinocytosis inhibitor 5-(N-ethyl-N-isopropyl) amiloride (EIPA, 75 μM) for 1 h or SH-BC-893 for 6 h. […]

[2] = tested on: non-transformed and cancer cells; assay: Cytosolic vacuolation by SH-BC-893; format: cell-based; conditions: both non-transformed and cancer cells
From the text: Certain embodiments of the invention are directed to azacyclic constrained sphingolipid-like molecules to inhibit macropinocytosis and autophagy, consistent with the bioenergetic mechanism. This aspect of the mechanism was unexpected because it was initially believed in that these molecules would only reduce nutrient transporter surface expression. However, considering that Ras activation increases macropinocytosis and autophagy, and the finding that SH-BC-893 was very effective against neoplastic cells with activated Ras led to the hypothesis that azacyclic constrained sphingolipid-like molecules might also affect macropinocytosis and autophagy pathways. […]
as §1

PC3 cells = assay: Phosphorylation in intact cells by UPLC-MS/MS, PC3; format: in vitro ADME, human; conditions: 10 μM, 16 h incubation, percent of total compound recovered by UPLC-MS/MS
Description: Mass spectrometric quantification: One million PC3 or 5 million SW620 cells in one well of a 6 well plate are treated with 10 μM FTY720 or 5 for 16 h. Media (100 μl) is removed from the well and combined with 100 μl of acetonitrile. Cells are collected by scraping, pelleted, and re-suspended in 100 μl of HPLC-grade water followed by the addition of 100 μl acetonitrile. Seventy-five nanograms of the compounds not being quantified (FTY720 and FTY720-P for analysis of the phosphorylation of 5, or 5 and 5-P for the analysis of FTY720/FYT720-P) is added to serve as an internal standard to allow correction for loss of compound during sample preparation. […] Insoluble material is again removed by centrifugation and the supernatant analyzed for compound content. Twenty microliters of this de-proteinated sample is analyzed by UPLC-MS/MS (Waters Micromass Quattro Premier XE) equipped with a C18 reversed phase column (Waters) using an acetonitrile (+0.2% acetic acid) gradient elution. […] The cone voltages are 30V for FTY720 and 5, and 20V for FTY720-P and 5-P. A standard curve is generated using pure compounds to allow for quantification; standard curves were linear from 50-1000 ng/ml with an R^2 of 0.98 or greater. […]

CCCCCCCCc1ccc([C@H]2CCN[C@@H]2CO)cc1.Cl [Compound 5, (2S,3R)-2-(hydroxymethyl)-3-(4-octylphenyl)Pyrrolidinium chloride]
surface levels of the LDL receptor (LDLr), LDL uptake, and lipid droplet accumulation [1]: dramatically decreased
cytosolic vacuolation [2]: induced equally striking cytosolic vacuolation
efficiency of phosphorylation in intact cells (PC3 cells): phosphorylated slightly more efficiently than FTY720
